Test results reported in patent publication US20160222014A1, “COMPOUNDS FOR REGULATING FAK AND/OR SRC PATHWAYS” (ASANA BIOSCIENCES, LLC, priority 2013, published 2016).

Legend:
Recombinant Src enzyme = molecular target: T1, Recombinant Src enzyme (Homo sapiens, UniProt P12931); assay: Src HTRF assay; assay type: biochemical
T1 construct: purchased Millipore 14-326; host or cells: Sf21 insect cells
Description: Enzyme assay buffer, supplements, and compounds were prepared as described in the FAK HTRF assay.
Recombinant Src enzyme expressed in Sf21 insect cells was obtained (Millipore, Cat No. 14-326, Lot # D8CN006U-K). A 35 μM stock was used at a final concentration of 5 nM in the assay.
Tyk2 synthetic peptide-Biotinylated-N-terminal tag-[…]
A custom made substrate, a Tyk2 synthetic peptide, biotinylated with an N-terminal tag was obtained (Biopeptide and Sigma, Cat. No. 14918001 VC80021). A 100 μM stock was used at a final concentration of 0.5 μM in the assay.
A 10 mM stock in 100 μL enzyme assay buffer pH7.4 was prepared freshly and used at a final concentration of 10 μM in the assay.
Dasatinib (Bristol-Myers Squibb)
The assay procedure was the same as discussed above.

recombinant human FAK1 = molecular target: T2, recombinant human FAK1 (Homo sapiens, UniProt Q05397); assay: FAK1 HTRF assay; assay type: biochemical
T2 construct: fused on or other part: N-terminal 6xHis tag
Procedure, shortened: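 IC50 values derive from HTRF % inhibition (ratio 665/620 nm, Eu–anti-phosphotyrosine 0.1 nM, SA-APC 12 nM). The kinase step ran 45 min at room temperature, pairing 10 nM His-FAK1(692–end) from baculovirus with 0.5 μM gastrin Tyr87 biotin-peptide and a reagent at 10 μM final, pH 7.4. Compound dilutions began at 10 μM.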

T2 sequence (Q05397 422-680 limits assumed): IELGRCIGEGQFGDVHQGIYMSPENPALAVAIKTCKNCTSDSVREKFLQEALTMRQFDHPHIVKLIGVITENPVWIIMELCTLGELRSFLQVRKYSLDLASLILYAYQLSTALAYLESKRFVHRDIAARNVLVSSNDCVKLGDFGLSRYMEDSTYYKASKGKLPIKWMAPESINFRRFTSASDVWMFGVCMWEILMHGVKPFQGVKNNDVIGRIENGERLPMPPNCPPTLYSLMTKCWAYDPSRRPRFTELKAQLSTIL
T1 sequence (P12931 whole entry): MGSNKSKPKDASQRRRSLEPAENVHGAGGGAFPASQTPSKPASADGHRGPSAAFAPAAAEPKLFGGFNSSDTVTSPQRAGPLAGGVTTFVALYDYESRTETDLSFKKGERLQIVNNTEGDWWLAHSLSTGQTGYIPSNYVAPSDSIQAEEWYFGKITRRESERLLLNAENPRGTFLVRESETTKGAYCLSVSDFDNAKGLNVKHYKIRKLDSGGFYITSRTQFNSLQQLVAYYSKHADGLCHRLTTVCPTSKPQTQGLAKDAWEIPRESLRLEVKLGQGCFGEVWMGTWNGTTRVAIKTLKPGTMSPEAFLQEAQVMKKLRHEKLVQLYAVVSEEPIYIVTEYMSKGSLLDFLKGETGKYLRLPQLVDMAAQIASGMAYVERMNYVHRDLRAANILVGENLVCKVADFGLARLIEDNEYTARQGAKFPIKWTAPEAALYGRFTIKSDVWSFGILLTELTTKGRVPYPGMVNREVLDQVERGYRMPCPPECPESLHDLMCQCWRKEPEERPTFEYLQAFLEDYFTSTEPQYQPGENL

| Structure (SMILES) | IC50 (Recombinant Src enzyme) [nM] | IC50 (recombinant human FAK1) [nM] |
| --- | --- | --- |
| Cc1ccnc2c(S(=O)(=O)n3ccc4cnc(Nc5ccc(N6CCC(O)CC6)cc5)nc43)cccc12 [Example 402] | > 1000 |  |
| COc1cc(N2CCN(C)CC2)ccc1Nc1cc2c(ccn2S(=O)(=O)c2cccc3cccnc23)cn1 [Example 407] | > 1000 | < 20 |
| N#Cc1ccccc1S(=O)(=O)n1ccc2cnc(Nc3ccc(N4CCC(O)CC4)cc3)cc21 [Example 414] | > 1000 | < 20 |
| O=S(=O)(c1cccc2cccnc12)n1ccc2cnc(Nc3ccc(N4CCNCC4)cc3Cl)nc21 [Example 418] | > 1000 | < 20 |
| COc1cc(N2CCN(C)CC2)ccc1Nc1ncc2ccn(Cc3ccccc3N(C)S(C)(=O)=O)c2n1 [Example 424] | > 1000 | < 20 |
| COc1cc(N2CCC(OC)CC2)ccc1Nc1cc2c(ccn2S(=O)(=O)c2cccc3cccnc23)cn1 [Example 430] | > 1000 | < 20 |
| CN(c1ncccc1CN1CCc2cnc(Nc3ccc(N4CCNCC4)cc3)nc21)S(C)(=O)=O [Example 433] | > 1000 |  |
| C[C@H]1CNCCN1c1ccc(Nc2cc3c(ccn3S(=O)(=O)c3ccccc3C#N)cn2)cc1 [Example 477] | > 1000 |  |
| COc1cc(N2CCN(C)CC2)ccc1Nc1cc2c(ccn2S(=O)(=O)c2ccccc2C#N)cn1 [Example 493] | > 1000 | < 20 |
| COc1cc(C(=O)N2CCOCC2)ccc1Nc1ncc2ccn(Cc3ccccc3N(C)S(C)(=O)=O)c2n1 [Example 503] | > 1000 |  |
| CC1(C)CN(S(=O)(=O)c2cccc3cccnc23)c2nc(Nc3ccc4c(c3)CC(=O)N4)ncc21 [Example 511] | > 1000 |  |
| C[C@H]1CN(c2ccc(Nc3ncc4ccn(Cc5ccccc5N(C)S(C)(=O)=O)c4n3)nc2)CCN1 [Example 565] | > 1000 |  |
| COc1cccc(Nc2ncc3ccn(Cc4ccccc4N(CCN4CCNCC4)S(C)(=O)=O)c3n2)c1 [Example 583] | > 1000 | > 1000 |
| C[C@H]1CN(c2ccc(Nc3ncc4ccn(Cc5cccnc5N(C)S(C)(=O)=O)c4n3)nc2)CCN1 [Example 585, (S)—N-methyl-N-(3-((2-((5-(3-methylpiperazin-1-yl)pyridin-2-yl)amino)-7H-pyrrolo[2,3-d]pyrimidin-7-yl)methyl)pyridin-2-yl)methanesulfonamide] | > 1000 | > 1000 |
| CN(C)C1CN(c2ccc(Nc3ncc4c(n3)N(S(=O)(=O)c3cccc5cccnc35)CC4(C)C)cc2)C1 [Example 603] | > 1000 |  |
| CN(C)C1CCN(c2ccc(Nc3cc4c(cn3)C(C)(C)CN4S(=O)(=O)c3cccc4cccnc34)cc2)CC1 [Example 611] | > 1000 | < 20 |
| C[C@H]1CN(c2ccc(Nc3cc4c(ccn4Cc4cccnc4N(C)S(C)(=O)=O)cn3)cc2)CCN1 [Example 616] | > 1000 |  |
| CC1(C)CN(S(=O)(=O)c2cccc3cccnc23)c2nc(Nc3ccc(N4CCC(CO)CC4)cc3)ncc21 [Example 625] | > 1000 |  |
| COc1cc(Nc2ncc3c(n2)N(S(=O)(=O)c2cccc4cccnc24)CC3(C)C)ccc1N1CCN[C@@H](C)C1 [Example 627] | > 1000 |  |
| COc1cc(N2CCC(N(C)C)CC2)ccc1Nc1ncc2c(n1)N(S(=O)(=O)c1cccc3cccnc13)CC2(C)C [Example 650] | > 1000 | < 20 |
| COc1ccc(Cn2ccc3cnc(Nc4ccc(N5CCN[C@H](C)C5)cc4)nc32)c(N(C)S(C)(=O)=O)c1 [Example 671] | > 1000 |  |

| Structure (SMILES) | IC50 (Recombinant Src enzyme) [nM] | IC50 (recombinant human FAK1) [nM] |
| --- | --- | --- |
| CC1(C)CN(S(=O)(=O)c2cccc3cccnc23)c2nc(Nc3ccc(NC4CCNCC4)cc3)ncc21 [Example 673] | > 1000 |  |
| C[C@H]1CN(c2ccc(Nc3ncc4ccn(Cc5ccc(C#N)cc5N(C)S(C)(=O)=O)c4n3)cc2)CCN1 [Example 685] | > 1000 |  |
| CN(C)C1CCN(c2ccc(Nc3ncc4ccn(Cc5ccc(C#N)cc5N(C)S(C)(=O)=O)c4n3)cc2)CC1 [Example 689] | > 1000 |  |
| CC1(C)CN(c2ccccn2)c2nc(Nc3ccc4[nH]cc(C5=CCNCC5)c4c3)ncc21 [Example 713] | > 1000 | < 20 |
| COc1ccc(Cn2ccc3cnc(Nc4ccc(N5CCN[C@@H](C)C5)cc4)nc32)c(N(C)S(C)(=O)=O)c1 [Example 714] | > 1000 |  |
| Cc1cn(Cc2cccnc2N(C)S(C)(=O)=O)c2nc(Nc3ccc(N4CCNCC4)cc3)ncc12 [Example 719] | > 1000 |  |
| CN(c1ncccc1Cn1cc(F)c2cnc(Nc3ccc(N4CCNCC4)cc3)nc21)S(C)(=O)=O [Example 722] | > 1000 |  |
| CN(C)C1CCN(c2ccc(Nc3ncc4c(C#N)cn(Cc5cccnc5N(C)S(C)(=O)=O)c4n3)cc2)CC1 [Example 728] | > 1000 |  |
| C[C@H]1CN(c2ccc(Nc3ncc4ccn(Cc5ccccc5NS(=O)(=O)CCCF)c4n3)c(F)c2)CCN1 [Example 729] | > 1000 | > 1000 |
| C[C@H]1CN(c2ccc(Nc3ncc4ccn(Cc5ccccc5N(C)S(=O)(=O)CCCF)c4n3)c(F)c2)CCN1 [Example 730] | > 1000 | > 1000 |
| CN(c1ccccc1Cn1cc(C#N)c2cnc(Nc3ccc(N4CCNCC4)cc3)nc21)S(C)(=O)=O [Example 731] | > 1000 |  |
| CN1c2c(Cn3ccc4cnc(Nc5ccc(N6CCNCC6)cc5)nc43)cccc2CS1(=O)=O [Example 756] | > 1000 |  |
| CC1(C)CN(S(=O)(=O)c2cccc3ccccc23)c2nc(Nc3ccc(N4CCNCC4)cc3)ncc21 [Example 760] | > 1000 |  |
| C[C@H]1CN(c2ccc(Nc3ncc4ccn(Cc5cccc6c5N(C)S(=O)(=O)C6)c4n3)cc2)CCN1 [Example 764] | > 1000 |  |
| CC1(C)CN(S(=O)(=O)c2cccc3cccnc23)c2nc(Nc3ccc(N4CCN(C5CC5)CC4)cc3)ncc21 [Example 771] | > 1000 |  |
| COc1ccc(Cn2ccc3cnc(Nc4ccc(N5CCNCC5)cc4)nc32)c(N(C)S(C)(=O)=O)c1 [Example 772] | > 1000 |  |
| CC(c1ccccc1N(C)S(C)(=O)=O)n1ccc2cnc(Nc3ccc(N4CCN[C@H](C)C4)cc3)nc21 (stereo partly drawn) [Example 779] | > 1000 |  |
| C[C@H]1CN(c2ccc(Nc3cc4c(cn3)cnn4Cc3cccnc3N(C)S(C)(=O)=O)cc2)CCN1 [Example 781] | > 1000 |  |
| C[C@H]1CN(c2ccc(Nc3ncc4nnn(Cc5cccnc5N(C)S(C)(=O)=O)c4n3)cc2)CCN1 [Example 790] | > 1000 |  |
| CC(c1ccccc1Cn1ccc2cnc(Nc3ccc(N4CCC(N(C)C)CC4)cc3)nc21)S(C)(=O)=O (stereo not drawn) [Example 791] | > 1000 |  |

Further lines, results first:

| IC50 (Recombinant Src enzyme) [nM] | IC50 (recombinant human FAK1) [nM] | Structure (SMILES) |
| --- | --- | --- |
| > 1000 | > 1000 | O=C1CCc2cc(Nc3ncc4ccn(S(=O)(=O)c5cccc(OC(F)(F)F)c5)c4n3)ccc2N1 [Example 45] |
| > 1000 | > 1000 | COc1ccccc1S(=O)(=O)n1ccc2cnc(Nc3cncnc3)nc21 [Example 146] |
| > 1000 | > 1000 | CC(=O)Nc1ccc(S(=O)(=O)n2ccc3cnc(Nc4ccc(CC#N)cc4)nc32)cc1 [Example 183] |
| > 1000 | > 1000 | CN(c1ncccc1Cn1cc2cnc(Nc3ccc4c(c3)CCC(=O)N4)nc2n1)S(C)(=O)=O [Example 190] |
| < 20 | < 20 | CN(c1ncccc1Cn1ccc2cnc(Nc3ccc4c(c3)NC(=O)CC4)nc21)S(C)(=O)=O [Example 209] |
| < 20 | < 20 | O=C1CCc2cc(Nc3ncc4ccn(S(=O)(=O)c5cccc6ccccc56)c4n3)ccc2N1 [Example 223] |
| > 1000 | > 1000 | CN(c1ncccc1Cn1ccc2cnc(Nc3ncccn3)nc21)S(C)(=O)=O [Example 227] |
| < 20 | < 20 | O=C1CCc2cc(Nc3ncc4cnn(S(=O)(=O)c5cccc6cccnc56)c4n3)ccc2N1 [Example 228] |
| > 1000 | < 20 | N#Cc1ccccc1Nc1ncc2ccn(S(=O)(=O)c3cccc4cccnc34)c2n1 [Example 359] |
| > 1000 | < 20 | COc1cc(N2CCNCC2)ccc1Nc1ncc2ccn(S(=O)(=O)c3cc(C)cc4cccnc34)c2n1 [Example 360] |
| > 1000 | > 1000 | O=S(=O)(c1cccc2cccnc12)n1ccc2cnc(Nc3ccc(N4CCNCC4)cc3OC3CCC3)cc21 [Example 362] |
| > 1000 | < 20 | Cc1cc(Nc2cc3c(cn2)cnn3S(=O)(=O)c2cccc3cccnc23)ccc1N1CCOCC1 [Example 374] |
| > 1000 |  | CN(c1ncccc1Cn1ccc2cnc(Nc3ccc(N4CCC(O)CC4)cc3)cc21)S(C)(=O)=O [Example 384] |
| > 1000 | < 20 | CN(c1ccccc1Cn1ccc2cnc(Nc3ccc(N4CCOCC4)cc3)cc21)S(C)(=O)=O [Example 385] |
| > 1000 |  | CN(c1ncccc1Cn1ccc2cnc(Nc3ccc(N4CCN(CCO)CC4)cc3)cc21)S(C)(=O)=O [Example 393] |
| > 1000 | < 20 | COc1cc(N2CCC(O)CC2)ccc1Nc1cc2c(cn1)cnn2S(=O)(=O)c1cccc2cccnc12 [Example 396] |
| < 20 | < 20 | Cc1cc(Nc2ncc3ccn(Cc4ccccc4N(C)S(C)(=O)=O)c3n2)ccc1N1CCNCC1 [Example 447] |
| < 20 | < 20 | C[C@H]1CN(c2ccc(Nc3ncc4ccn(Cc5ccccc5N(C)S(C)(=O)=O)c4n3)cc2)CCN1C [Example 491] |
| < 20 | < 20 | CN(c1ccccc1Cn1ccc2cnc(Nc3ccc(N4CCN5CCCC5C4)cc3)nc21)S(C)(=O)=O (stereo not drawn) [Example 496] |
